Data as given in US20160022620A1, “ENCAPSULATED COMPOSITION FOR BINDING ALDEHYDES IN THE STOMACH” (BIOHIT OYJ, priority 2013, published 2016).

Assay: Dissolution test for the capsules (USP I method, pH 1.2 HCl buffer)
Type: physicochemical
Details: not granulated; in 5 minutes
Experimental: Dissolution tests were carried out on the capsules of Example 1 according to the USP I method (USP 24) (The United States Pharmacopeia 2001). A standard curve was prepared between 0.01 and 0.6 mg/ml ([…], r^2=0.9999). The medium used was 500 ml of pH 1.2 HCl buffer. The rotation rate of the baskets was 100 rpm, and the temperature of the medium was +37° C. (±0.5). Samples were taken at 5-minute intervals for the first half hour and thereafter at 10-minute intervals for the remaining 2 hours. L-cysteine was detected in flow-through cells (10 mm) at a wavelength of 213 nm. The results were calculated by using dissolution software. The system was equipped with a bath and a pump (Sotax AT7 UV Dissolution System, Stax, Allschwil, Switzerland) and a spectrophotometer (PerkinElmer, Lambda 25, PerkinElmer, Inc., Waltham, Mass.), the software used for the test and for calculating the results was WinSotax (Sotax). […] When not granulated, the L-cysteine was dissolved rapidly (100% in 5 minutes).

L-cysteine dissolved: 100%
Structure (SMILES): N[C@@H](CS)C(=O)O [L-cysteine]
